According to ChEMBL document CHEMBL4699634, “Series of Novel and Highly Potent Cyclic Peptide PCSK9 Inhibitors Derived from an mRNA Display Screen and Optimized via Structure-Based Design” (J Med Chem, 2020):
Numbered stars: 1 amine (or outer) side, 2 acyl side, 3 side chain; on linkers, the order of the positions; unused ones are H or OH. Bridge positions count the residues as written; N and C are the ends. Square brackets hold non-standard residues; d marks the D form. Peptide text beside a SMILES is read from it. ξ: configuration not given here. Trp(5-F) = N[C@@H](Cc1c[nH]c2ccc(F)cc12)C(=O)O; Bip = N[C@@H](Cc1ccc(-c2ccccc2)cc1)C(=O)O; X4 = CC(N[*:1])(C(=O)[*:2])c1cccc2ccccc12; NMeW = CN[C@@H](Cc1c[nH]c2ccccc12)C(=O)O; mXylylene = c1cc(C[*:1])cc(C[*:2])c1; NMeY = CN[C@@H](Cc1ccc(O)cc1)C(=O)O; NMeH = CN[C@@H](Cc1c[nH]cn1)C(=O)O; NMeD = CN[C@@H](CC(=O)O)C(=O)O; ξhPhe = NC(CCc1ccccc1)C(=O)O; αMeP = C[C@@]1(C(=O)O)CCCN1; NMeC = CN[C@@H](CS)C(=O)O; Pip = O=C(O)[C@@H]1CCCCN1; Aze = O=C(O)[C@@H]1CCN1; Mpa = O=C(O)CCS; Sar = CNCC(=O)O

Target: PCSK9/LDLR (Homo sapiens, UniProt Q8NBP7)
Sequence (Q8NBP7 31-152 limits assumed): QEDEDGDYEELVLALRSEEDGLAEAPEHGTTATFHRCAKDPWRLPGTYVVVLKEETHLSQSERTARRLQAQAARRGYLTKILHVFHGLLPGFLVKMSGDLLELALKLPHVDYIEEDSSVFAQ
Sequence (Q8NBP7 153-692 limits assumed): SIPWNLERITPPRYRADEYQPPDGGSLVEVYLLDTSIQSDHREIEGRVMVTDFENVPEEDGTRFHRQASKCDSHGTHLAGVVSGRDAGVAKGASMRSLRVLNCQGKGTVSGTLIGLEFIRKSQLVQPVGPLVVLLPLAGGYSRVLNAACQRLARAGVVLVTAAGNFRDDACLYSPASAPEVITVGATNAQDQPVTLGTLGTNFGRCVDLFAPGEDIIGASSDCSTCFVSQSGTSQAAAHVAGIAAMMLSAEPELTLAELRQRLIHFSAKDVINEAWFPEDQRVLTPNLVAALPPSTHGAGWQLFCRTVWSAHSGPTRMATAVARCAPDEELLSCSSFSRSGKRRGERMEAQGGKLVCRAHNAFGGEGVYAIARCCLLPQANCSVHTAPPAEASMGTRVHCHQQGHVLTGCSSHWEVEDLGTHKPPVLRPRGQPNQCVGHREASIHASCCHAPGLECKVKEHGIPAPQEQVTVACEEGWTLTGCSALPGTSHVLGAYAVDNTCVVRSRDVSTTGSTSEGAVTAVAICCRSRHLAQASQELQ
Sequence (P01130 22-860 partner limits assumed): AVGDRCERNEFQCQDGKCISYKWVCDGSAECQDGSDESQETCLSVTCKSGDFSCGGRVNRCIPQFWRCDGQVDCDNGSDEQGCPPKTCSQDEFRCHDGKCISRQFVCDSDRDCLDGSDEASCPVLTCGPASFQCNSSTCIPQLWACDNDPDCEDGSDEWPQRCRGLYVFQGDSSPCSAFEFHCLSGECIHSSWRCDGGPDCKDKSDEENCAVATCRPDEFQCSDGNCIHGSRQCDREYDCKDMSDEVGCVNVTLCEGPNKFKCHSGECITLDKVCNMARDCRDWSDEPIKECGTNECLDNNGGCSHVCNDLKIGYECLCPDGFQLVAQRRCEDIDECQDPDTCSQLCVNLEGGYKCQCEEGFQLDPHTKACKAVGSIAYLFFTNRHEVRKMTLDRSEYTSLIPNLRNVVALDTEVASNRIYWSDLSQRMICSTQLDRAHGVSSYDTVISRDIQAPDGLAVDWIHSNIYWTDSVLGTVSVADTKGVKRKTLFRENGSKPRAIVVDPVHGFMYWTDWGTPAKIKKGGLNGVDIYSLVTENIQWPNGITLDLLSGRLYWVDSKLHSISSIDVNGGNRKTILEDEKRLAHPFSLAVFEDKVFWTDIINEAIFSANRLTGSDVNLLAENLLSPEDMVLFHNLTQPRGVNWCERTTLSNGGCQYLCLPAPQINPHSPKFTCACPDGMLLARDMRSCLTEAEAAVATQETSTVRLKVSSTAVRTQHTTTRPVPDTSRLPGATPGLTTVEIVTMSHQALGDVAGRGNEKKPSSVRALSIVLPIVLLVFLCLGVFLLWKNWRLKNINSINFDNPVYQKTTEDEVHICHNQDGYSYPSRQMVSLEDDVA
Experiment: Inhibition of avi-tagged-biotinylated human PCSK9 interaction with His-tagged human LDLR EGFa domain by LANCE Ulight Streptavidin based TR-FRET assay
Assay type: protein assay

Row | Structure (SMILES) | Ki [µM]
1 | NCCCC[C@@H]1NC(=O)CCSCc2cccc(c2)CSC[C@@H](C(N)=O)NC(=O)[C@@H]2CCCN2C(=O)[C@H](Cc2ccc(O)cc2)NC(=O)[C@H](Cc2c[nH]cn2)NC(=O)[C@H](CC(=O)O)NC(=O)[C@H](Cc2c[nH]c3ccc(F)cc23)NC(=O)[C@H](Cc2ccc(-c3ccccc3)cc2)NC(=O)CNC1=O ([Mpa]KG[Bip][Trp(5-F)]DHYPC-NH2; linker 1-10 via mXylylene) | 29.3
2 | NCCCC[C@@H]1NC(=O)CCSCc2cccc(c2)CSC[C@@H](C(N)=O)NC(=O)[C@@H]2CCCCN2C(=O)[C@H](Cc2ccc(O)cc2)NC(=O)[C@H](Cc2cnc[nH]2)NC(=O)[C@H](CC(=O)O)NC(=O)[C@H](Cc2c[nH]c3ccc(F)cc23)NC(=O)[C@H](Cc2c[nH]c3ccc(F)cc23)NC(=O)CNC1=O ([Mpa]KG[Trp(5-F)][Trp(5-F)]DHY[Pip]C-NH2; linker 1-10 via mXylylene) | 0.969
3 | CC1(c2cccc3ccccc23)NC(=O)CNC(=O)[C@H](CCCCN)NC(=O)CCSCc2cccc(c2)CSC[C@@H](C(N)=O)NC(=O)[C@@H]2CCCN2C(=O)[C@H](Cc2ccc(O)cc2)NC(=O)[C@H](Cc2cnc[nH]2)NC(=O)[C@H](CC(=O)O)NC(=O)[C@H](Cc2c[nH]c3ccc(F)cc23)NC1=O (stereo partly drawn) ([Mpa]KG[X4][Trp(5-F)]DHYPC-NH2; linker 1-10 via mXylylene) | 0.063
4 | NCCCC[C@@H]1NC(=O)CCSCc2cccc(c2)CSC[C@@H](C(N)=O)NC(=O)[C@@H]2CCCN2C(=O)[C@@H](Cc2ccc(O)cc2)NC(=O)[C@H](Cc2cnc[nH]2)NC(=O)[C@H](CC(=O)O)NC(=O)[C@H](Cc2c[nH]c3ccc(F)cc23)NC(=O)[C@H](Cc2c[nH]c3ccc(F)cc23)NC(=O)CNC1=O | > 48
5 | C[C@@H]1NC(=O)[C@H](CCCCN)NC(=O)CCSCc2cccc(c2)CSC[C@@H](C(N)=O)NC(=O)[C@@H]2CCCN2C(=O)[C@H](Cc2ccc(O)cc2)NC(=O)[C@H](Cc2cnc[nH]2)NC(=O)[C@H](CC(=O)O)NC(=O)[C@H](Cc2c[nH]c3ccc(F)cc23)NC(=O)[C@H](Cc2c[nH]c3ccc(F)cc23)NC1=O ([Mpa]KA[Trp(5-F)][Trp(5-F)]DHYPC-NH2; linker 1-10 via mXylylene) | > 48
6 | CN1C(=O)[C@H](Cc2cnc[nH]2)NC(=O)[C@H](CC(=O)O)NC(=O)[C@H](Cc2c[nH]c3ccc(F)cc23)NC(=O)[C@H](Cc2c[nH]c3ccc(F)cc23)NC(=O)CNC(=O)[C@H](CCCCN)NC(=O)CCSCc2cccc(c2)CSC[C@@H](C(N)=O)NC(=O)[C@@H]2CCCN2C(=O)[C@@H]1Cc1ccc(O)cc1 ([Mpa]KG[Trp(5-F)][Trp(5-F)]DH[NMeY]PC-NH2; linker 1-10 via mXylylene) | 0.112
7 | NCCCC[C@@H]1NC(=O)CCSCc2cccc(c2)CSC[C@@H](C(N)=O)NC(=O)[C@@H]2CCN2C(=O)[C@H](Cc2ccc(O)cc2)NC(=O)[C@H](Cc2cnc[nH]2)NC(=O)[C@H](CC(=O)O)NC(=O)[C@H](Cc2c[nH]c3ccc(F)cc23)NC(=O)[C@H](Cc2c[nH]c3ccc(F)cc23)NC(=O)CNC1=O ([Mpa]KG[Trp(5-F)][Trp(5-F)]DHY[Aze]C-NH2; linker 1-10 via mXylylene) | 0.0675
8 | C[C@@H]1NC(=O)[C@H](Cc2ccc(O)cc2)NC(=O)[C@H](Cc2cnc[nH]2)NC(=O)[C@H](CC(=O)O)NC(=O)[C@H](Cc2c[nH]c3ccc(F)cc23)NC(=O)[C@H](Cc2c[nH]c3ccc(F)cc23)NC(=O)CNC(=O)[C@H](CCCCN)NC(=O)CCSCc2cccc(c2)CSC[C@@H](C(N)=O)NC1=O ([Mpa]KG[Trp(5-F)][Trp(5-F)]DHYAC-NH2; linker 1-10 via mXylylene) | > 48
9 | C[C@H](O)[C@H]1NC(=O)[C@H](CCCCN)NC(=O)CCSCc2cccc(c2)CSCCNC(=O)[C@]2(C)CCCN2C(=O)[C@H](Cc2ccc(O)cc2)NC(=O)[C@H](Cc2cnc[nH]2)NC(=O)[C@H](CC(=O)O)NC(=O)[C@H](Cc2c[nH]c3ccc(F)cc23)NC(=O)[C@H](Cc2c[nH]c3ccc(F)cc23)NC1=O | 0.0269
10 | CN1C(=O)[C@H](Cc2c[nH]c3ccc(F)cc23)NC(=O)[C@H](Cc2c[nH]c3ccc(F)cc23)NC(=O)CNC(=O)[C@H](CCCCN)NC(=O)CCSCc2cccc(c2)CSC[C@@H](C(N)=O)NC(=O)[C@@H]2CCCN2C(=O)[C@H](Cc2ccc(O)cc2)NC(=O)[C@H](Cc2cnc[nH]2)NC(=O)[C@@H]1CC(=O)O ([Mpa]KG[Trp(5-F)][Trp(5-F)][NMeD]HYPC-NH2; linker 1-10 via mXylylene) | 12.9
11 | CN1C(=O)[C@@H]2CCCN2C(=O)[C@H](Cc2ccc(O)cc2)NC(=O)[C@H](Cc2cnc[nH]2)NC(=O)[C@H](CC(=O)O)NC(=O)[C@H](Cc2c[nH]c3ccc(F)cc23)NC(=O)[C@H](Cc2c[nH]c3ccc(F)cc23)NC(=O)CNC(=O)[C@H](CCCCN)NC(=O)CCSCc2cccc(c2)CSC[C@H]1C(N)=O ([Mpa]KG[Trp(5-F)][Trp(5-F)]DHYP[NMeC]-NH2; linker 1-10 via mXylylene) | > 48
12 | CN1C(=O)[C@H](Cc2c[nH]c3ccc(F)cc23)NC(=O)CNC(=O)[C@H](CCCCN)NC(=O)CCSCc2cccc(c2)CSC[C@@H](C(N)=O)NC(=O)[C@@H]2CCCN2C(=O)[C@H](Cc2ccc(O)cc2)NC(=O)[C@H](Cc2cnc[nH]2)NC(=O)[C@H](CC(=O)O)NC(=O)[C@@H]1Cc1c[nH]c2ccccc12 ([Mpa]KG[Trp(5-F)][NMeW]DHYPC-NH2; linker 1-10 via mXylylene) | > 48
13 | C[C@@H]1NC(=O)[C@H](Cc2c[nH]c3ccc(F)cc23)NC(=O)[C@H](Cc2c[nH]c3ccc(F)cc23)NC(=O)CNC(=O)[C@H](CCCCN)NC(=O)CCSCc2cccc(c2)CSC[C@@H](C(N)=O)NC(=O)[C@@H]2CCCN2C(=O)[C@H](Cc2ccc(O)cc2)NC(=O)[C@H](Cc2cnc[nH]2)NC1=O ([Mpa]KG[Trp(5-F)][Trp(5-F)]AHYPC-NH2; linker 1-10 via mXylylene) | 0.427
14 | CN1CC(=O)N[C@@H](Cc2c[nH]c3ccc(F)cc23)C(=O)N[C@@H](Cc2c[nH]c3ccc(F)cc23)C(=O)N[C@@H](CC(=O)O)C(=O)N[C@@H](Cc2cnc[nH]2)C(=O)N[C@@H](Cc2ccc(O)cc2)C(=O)N2CCC[C@H]2C(=O)N[C@H](C(N)=O)CSCc2cccc(c2)CSCCC(=O)N[C@@H](CCCCN)C1=O ([Mpa]K[Sar][Trp(5-F)][Trp(5-F)]DHYPC-NH2; linker 1-10 via mXylylene) | 4.09
15 | NCCCC[C@@H]1NC(=O)CCSCc2cccc(c2)CSC[C@@H](C(N)=O)NC(=O)[C@@H]2CCCN2C(=O)[C@H](Cc2ccc(O)cc2)NC(=O)[C@H](Cc2cnc[nH]2)NC(=O)[C@H](CC(=O)O)NC(=O)[C@H](Cc2c[nH]c3ccc(F)cc23)NC(=O)C(CCc2ccccc2)NC(=O)CNC1=O (stereo partly drawn) ([Mpa]KG[ξhPhe][Trp(5-F)]DHYPC-NH2; linker 1-10 via mXylylene) | 2.21
16 | CN1C(=O)[C@H](CC(=O)O)NC(=O)[C@H](Cc2c[nH]c3ccc(F)cc23)NC(=O)[C@H](Cc2c[nH]c3ccc(F)cc23)NC(=O)CNC(=O)[C@H](CCCCN)NC(=O)CCSCc2cccc(c2)CSC[C@@H](C(N)=O)NC(=O)[C@@H]2CCCN2C(=O)[C@H](Cc2ccc(O)cc2)NC(=O)[C@@H]1Cc1cnc[nH]1 ([Mpa]KG[Trp(5-F)][Trp(5-F)]D[NMeH]YPC-NH2; linker 1-10 via mXylylene) | > 48
17 | C[C@@H]1NC(=O)[C@H](Cc2c[nH]c3ccc(F)cc23)NC(=O)CNC(=O)[C@H](CCCCN)NC(=O)CCSCc2cccc(c2)CSC[C@@H](C(N)=O)NC(=O)[C@@H]2CCCN2C(=O)[C@H](Cc2ccc(O)cc2)NC(=O)[C@H](Cc2cnc[nH]2)NC(=O)[C@H](CC(=O)O)NC1=O ([Mpa]KG[Trp(5-F)]ADHYPC-NH2; linker 1-10 via mXylylene) | > 48
18 | NCCCC[C@@H]1NC(=O)CCSCc2cccc(c2)CSC[C@@H](C(N)=O)NC(=O)[C@@H]2CCCN2C(=O)[C@H](Cc2ccc(O)cc2)NC(=O)[C@H](Cc2cnc[nH]2)NC(=O)[C@@H](CC(=O)O)NC(=O)[C@H](Cc2c[nH]c3ccc(F)cc23)NC(=O)[C@H](Cc2c[nH]c3ccc(F)cc23)NC(=O)CNC1=O | > 48
19 | NCCCC[C@@H]1NC(=O)CCSCc2cccc(c2)CSC[C@@H](C(N)=O)NC(=O)[C@@H]2CCCN2C(=O)[C@H](Cc2ccc(O)cc2)NC(=O)[C@@H](Cc2cnc[nH]2)NC(=O)[C@H](CC(=O)O)NC(=O)[C@H](Cc2c[nH]c3ccc(F)cc23)NC(=O)[C@H](Cc2c[nH]c3ccc(F)cc23)NC(=O)CNC1=O | > 48
20 | C[C@@H]1NC(=O)[C@H](Cc2cnc[nH]2)NC(=O)[C@H](CC(=O)O)NC(=O)[C@H](Cc2c[nH]c3ccc(F)cc23)NC(=O)[C@H](Cc2c[nH]c3ccc(F)cc23)NC(=O)CNC(=O)[C@H](CCCCN)NC(=O)CCSCc2cccc(c2)CSC[C@@H](C(N)=O)NC(=O)[C@@H]2CCCN2C1=O ([Mpa]KG[Trp(5-F)][Trp(5-F)]DHAPC-NH2; linker 1-10 via mXylylene) | > 48
21 | NCCCC[C@@H]1NC(=O)CCSCc2cccc(c2)CSC[C@@H](C(N)=O)NC(=O)[C@@H]2CCCN2C(=O)[C@H](Cc2ccc(O)cc2)NC(=O)[C@H](Cc2cnc[nH]2)NC(=O)[C@H](CC(=O)O)NC(=O)[C@H](Cc2c[nH]c3ccc(F)cc23)NC(=O)[C@@H](Cc2c[nH]c3ccccc23)NC(=O)CNC1=O | > 48
22 | CN1C(=O)CNC(=O)[C@H](CCCCN)NC(=O)CCSCc2cccc(c2)CSC[C@@H](C(N)=O)NC(=O)[C@@H]2CCCN2C(=O)[C@H](Cc2ccc(O)cc2)NC(=O)[C@H](Cc2cnc[nH]2)NC(=O)[C@H](CC(=O)O)NC(=O)[C@H](Cc2c[nH]c3ccc(F)cc23)NC(=O)[C@@H]1Cc1c[nH]c2ccccc12 ([Mpa]KG[NMeW][Trp(5-F)]DHYPC-NH2; linker 1-10 via mXylylene) | > 48
23 | C[C@@H]1NC(=O)[C@@H]2CCCN2C(=O)[C@H](Cc2c[nH]c3ccc(F)cc23)NC(=O)[C@H](Cc2c[nH]c3ccc(F)cc23)NC(=O)CNC(=O)[C@H](CCCCN)NC(=O)CCSCc2cccc(c2)CSC[C@@H](C(N)=O)NC(=O)[C@]2(C)CCCN2C(=O)[C@H](Cc2ccc(O)cc2)NC1=O ([Mpa]KG[Trp(5-F)][Trp(5-F)]PAY[αMeP]C-NH2; linker 1-10 via mXylylene) | 0.0883
